Assay results published in ChEMBL document CHEMBL1201862, “PubChem BioAssay data set” (2004).
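Exposure lasted 48 hours, with cells grown in 96-well plates and compounds tested at five concentrations. GI50 = concentration required for 50% inhibition of growth.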 Calls of active or inactive are those of the source. Rule as the data show it: active = GI50 up to about 1.1 µM and inactive = higher.

Key:
Experiment in all cases: growth of human tumour cells (NCI), 48 h
SN12C = system: SN12C
CAKI-1 = system: CAKI-1
786-0 = system: 786-0
HT-29 = system: HT-29
MCF7 = system: MCF7
CCRF-CEM = system: CCRF-CEM
MDA-MB-231 = system: MDA-MB-231
HOP-92 = system: HOP-92
NCI-H226 = system: NCI-H226
K562 = system: K562
HOP-62 = system: HOP-62
HCT-15 = system: HCT-15
EKVX = system: EKVX
LOX IMVI = system: LOX IMVI
U-251 = system: U-251
SF-539 = system: SF-539
COLO 205 = system: COLO 205
UACC-62 = system: UACC-62
OVCAR-4 = system: OVCAR-4
UO-31 = system: UO-31
MOLT-4 = system: MOLT-4
SK-MEL-5 = system: SK-MEL-5
TK-10 = system: TK-10
KM12 = system: KM12
RXF 393 = system: RXF 393
PC-3 = system: PC-3
UACC-257 = system: UACC-257
RPMI-8226 = system: RPMI-8226
SR = system: SR
OVCAR-3 = system: OVCAR-3
OVCAR-5 = system: OVCAR-5
MDA-MB-435 = system: MDA-MB-435
SK-OV-3 = system: SK-OV-3
MDA-N = system: MDA-N
SF-268 = system: SF-268
BT-549 = system: BT-549
NCI-H460 = system: NCI-H460
SF-295 = system: SF-295
SK-MEL-2 = system: SK-MEL-2
Malme-3M = system: Malme-3M
DU-145 = system: DU-145
SW-620 = system: SW-620
NCI-H522 = system: NCI-H522
ACHN = system: ACHN
Hs-578T = system: Hs-578T
NCI-H23 = system: NCI-H23
A498 = system: A498
SNB-75 = system: SNB-75
T47D = system: T47D
IGROV-1 = system: IGROV-1
HCT-116 = system: HCT-116
SK-MEL-28 = system: SK-MEL-28
NCI/ADR-RES = system: NCI/ADR-RES
HCC 2998 = system: HCC 2998
HL-60 = system: HL-60
A549 = system: A549
OVCAR-8 = system: OVCAR-8
SNB-19 = system: SNB-19
M14 = system: M14

O=c1[nH]cnc2c1ncn2[C@H]1CO[C@@H](CO)[C@@H]1O
GI50 (SN12C): > 100 µM (inactive) | GI50 (CAKI-1): > 100 µM (inactive) | GI50 (786-0): > 100 µM (inactive) | GI50 (HT-29): > 100 µM (inactive) | GI50 (MCF7): > 100 µM (inactive) | GI50 (CCRF-CEM): > 100 µM (inactive) | GI50 (MDA-MB-231): > 100 µM (inactive) | GI50 (HOP-92): > 100 µM (inactive) | GI50 (NCI-H226): > 100 µM (inactive) | GI50 (K562): > 100 µM (inactive) | GI50 (HOP-62): > 100 µM (inactive) | GI50 (HCT-15): > 100 µM | GI50 (EKVX): > 100 µM (inactive) | GI50 (LOX IMVI): > 100 µM (inactive) | GI50 (U-251): > 100 µM (inactive) | GI50 (SF-539): > 100 µM (inactive) | GI50 (COLO 205): > 100 µM (inactive) | GI50 (UACC-62): > 100 µM (inactive) | GI50 (OVCAR-4): > 100 µM (inactive) | GI50 (UO-31): > 100 µM (inactive) | GI50 (MOLT-4): > 100 µM (inactive) | GI50 (SK-MEL-5): > 100 µM (inactive) | GI50 (TK-10): > 100 µM (inactive) | GI50 (KM12): > 100 µM (inactive) | GI50 (RXF 393): > 100 µM (inactive) | GI50 (PC-3): > 100 µM (inactive) | GI50 (UACC-257): > 100 µM (inactive) | GI50 (RPMI-8226): > 100 µM (inactive) | GI50 (SR): > 100 µM (inactive) | GI50 (OVCAR-3): > 100 µM (inactive) | GI50 (OVCAR-5): > 100 µM (inactive) | GI50 (MDA-MB-435): > 100 µM (inactive) | GI50 (SK-OV-3): > 100 µM (inactive) | GI50 (MDA-N): > 100 µM (inactive) | GI50 (SF-268): > 100 µM (inactive) | GI50 (BT-549): > 100 µM (inactive) | GI50 (NCI-H460): > 100 µM (inactive) | GI50 (SF-295): > 100 µM (inactive) | GI50 (SK-MEL-2): > 100 µM (inactive) | GI50 (Malme-3M): > 100 µM (inactive) | GI50 (DU-145): > 100 µM (inactive) | GI50 (SW-620): > 100 µM (inactive) | GI50 (NCI-H522): > 100 µM (inactive) | GI50 (ACHN): > 100 µM (inactive) | GI50 (Hs-578T): > 100 µM (inactive) | GI50 (NCI-H23): > 100 µM (inactive) | GI50 (A498): > 100 µM (inactive) | GI50 (SNB-75): > 100 µM (inactive) | GI50 (T47D): > 100 µM (inactive) | GI50 (IGROV-1): > 100 µM (inactive) | GI50 (HCT-116): > 100 µM (inactive) | GI50 (SK-MEL-28): > 100 µM (inactive) | GI50 (NCI/ADR-RES): > 100 µM (inactive) | GI50 (HCC 2998): > 100 µM (inactive)

COc1ccc(CNc2nc3ccccc3nc2C(=O)O)cc1OC
GI50 (HL-60): > 100 µM (inactive) | GI50 (SN12C): 91.6 µM (inactive) | GI50 (CAKI-1): > 100 µM (inactive) | GI50 (786-0): > 100 µM (inactive) | GI50 (HT-29): > 100 µM (inactive) | GI50 (MCF7): > 100 µM (inactive) | GI50 (CCRF-CEM): > 100 µM (inactive) | GI50 (MDA-MB-231): > 100 µM (inactive) | GI50 (HOP-92): 17.1 µM (inactive) | GI50 (NCI-H226): > 100 µM (inactive) | GI50 (K562): > 100 µM (inactive) | GI50 (HOP-62): > 100 µM (inactive) | GI50 (HCT-15): 83.8 µM | GI50 (EKVX): > 100 µM (inactive) | GI50 (LOX IMVI): > 100 µM (inactive) | GI50 (U-251): 97.7 µM (inactive) | GI50 (SF-539): > 100 µM (inactive) | GI50 (COLO 205): > 100 µM (inactive) | GI50 (UACC-62): > 100 µM (inactive) | GI50 (OVCAR-4): > 100 µM (inactive) | GI50 (UO-31): 36.5 µM (inactive) | GI50 (MOLT-4): > 100 µM (inactive) | GI50 (SK-MEL-5): > 100 µM (inactive) | GI50 (TK-10): > 100 µM (inactive) | GI50 (KM12): > 100 µM (inactive) | GI50 (RXF 393): > 100 µM (inactive) | GI50 (PC-3): > 100 µM (inactive) | GI50 (UACC-257): > 100 µM (inactive) | GI50 (RPMI-8226): > 100 µM (inactive) | GI50 (SR): > 100 µM (inactive) | GI50 (OVCAR-3): > 100 µM (inactive) | GI50 (MDA-MB-435): > 100 µM (inactive) | GI50 (SK-OV-3): > 100 µM (inactive) | GI50 (MDA-N): > 100 µM (inactive) | GI50 (A549): > 100 µM (inactive) | GI50 (SF-268): > 100 µM (inactive) | GI50 (BT-549): 30.7 µM (inactive) | GI50 (NCI-H460): > 100 µM (inactive) | GI50 (SF-295): > 100 µM (inactive) | GI50 (OVCAR-8): > 100 µM (inactive) | GI50 (Malme-3M): > 100 µM (inactive) | GI50 (DU-145): > 100 µM (inactive) | GI50 (SW-620): > 100 µM (inactive) | GI50 (NCI-H522): > 100 µM (inactive) | GI50 (ACHN): > 100 µM (inactive) | GI50 (Hs-578T): > 100 µM (inactive) | GI50 (NCI-H23): > 100 µM (inactive) | GI50 (A498): 91.2 µM (inactive) | GI50 (SNB-75): > 100 µM (inactive) | GI50 (T47D): > 100 µM (inactive) | GI50 (IGROV-1): > 100 µM (inactive) | GI50 (HCT-116): > 100 µM (inactive) | GI50 (SK-MEL-28): > 100 µM (inactive) | GI50 (NCI/ADR-RES): 26.7 µM (inactive) | GI50 (HCC 2998): > 100 µM (inactive)

CC1(C)[C@@H]2C[C@H]1c1cnc(-c3ccccn3)cc1C2[C@@H]1c2cc(-c3ccccn3)ncc2[C@@H]2C[C@H]1C2(C)C (some centres not stated)
GI50 (SNB-19): 69.3 µM (inactive) | GI50 (HL-60): 36.4 µM (inactive) | GI50 (SN12C): 97.5 µM (inactive) | GI50 (CAKI-1): 70.5 µM (inactive) | GI50 (786-0): 86.1 µM (inactive) | GI50 (HT-29): 45.3 µM (inactive) | GI50 (MCF7): 53 µM (inactive) | GI50 (CCRF-CEM): 47.5 µM (inactive) | GI50 (MDA-MB-231): > 100 µM (inactive) | GI50 (HOP-92): > 100 µM (inactive) | GI50 (NCI-H226): 28.4 µM (inactive) | GI50 (K562): 22.6 µM (inactive) | GI50 (HOP-62): 39.1 µM (inactive) | GI50 (HCT-15): 24.5 µM | GI50 (EKVX): > 100 µM (inactive) | GI50 (LOX IMVI): > 100 µM (inactive) | GI50 (U-251): 36.1 µM (inactive) | GI50 (COLO 205): 49.1 µM (inactive) | GI50 (UACC-62): 45 µM (inactive) | GI50 (OVCAR-4): 20.6 µM (inactive) | GI50 (UO-31): 24.3 µM (inactive) | GI50 (M14): 38 µM (inactive) | GI50 (MOLT-4): 44 µM (inactive) | GI50 (SK-MEL-5): 49.7 µM (inactive) | GI50 (TK-10): 16.6 µM (inactive) | GI50 (KM12): 33.3 µM (inactive) | GI50 (RXF 393): > 100 µM (inactive) | GI50 (PC-3): 73.6 µM (inactive) | GI50 (UACC-257): 87.9 µM (inactive) | GI50 (RPMI-8226): 31.7 µM (inactive) | GI50 (SR): 62.8 µM (inactive) | GI50 (OVCAR-3): 43.6 µM (inactive) | GI50 (OVCAR-5): > 100 µM (inactive) | GI50 (MDA-MB-435): 76 µM (inactive) | GI50 (SK-OV-3): 73.6 µM (inactive) | GI50 (MDA-N): > 100 µM (inactive) | GI50 (A549): 30.3 µM (inactive) | GI50 (SF-268): 29.3 µM (inactive) | GI50 (BT-549): > 100 µM (inactive) | GI50 (NCI-H460): 2.77 µM (inactive) | GI50 (SF-295): 34.5 µM (inactive) | GI50 (SK-MEL-2): 68.9 µM (inactive) | GI50 (OVCAR-8): 46.8 µM (inactive) | GI50 (Malme-3M): 58.9 µM (inactive) | GI50 (DU-145): > 100 µM (inactive) | GI50 (SW-620): 84.3 µM (inactive) | GI50 (NCI-H522): 25.3 µM (inactive) | GI50 (ACHN): 40.5 µM (inactive) | GI50 (Hs-578T): > 100 µM (inactive) | GI50 (NCI-H23): 41.2 µM (inactive) | GI50 (A498): 39.9 µM (inactive) | GI50 (SNB-75): 55.8 µM (inactive) | GI50 (T47D): 55.1 µM (inactive) | GI50 (IGROV-1): 25.2 µM (inactive) | GI50 (HCT-116): 49 µM (inactive) | GI50 (SK-MEL-28): 88.3 µM (inactive) | GI50 (NCI/ADR-RES): 37.7 µM (inactive) | GI50 (HCC 2998): 45.7 µM (inactive)
